The numbers were not newly measured in patent US12285031B2, “Beverage with collagen and additional additives” (WELLDRINKS LTD, priority 2015, dated 2025), which cites them from elsewhere.

Square brackets hold non-standard residues; d marks the D form. Peptide text beside a SMILES is read from it. Hyp = O=C(O)[C@@H]1C[C@@H](O)CN1

For data set [1] the following is noted: adult humans.
The subject of data set [2] is dermal fibroblasts. The following applies: in vitro.

Regarding `[Mn+2]` [Mn, Manganese], the “fraction of ingested Mn absorbed” value in data set [1] is given as 3-5%. Turning to `O=C(O)CNC(=O)[C@@H]1C[C@@H](O)CN1` [Hyp-Gly, hydroxyprolyl-glycine] (H-[Hyp]-Gly-OH), in data set [2], the “cell proliferation of dermal fibroblasts” value is recorded as “enhance cell proliferation”. For `O=C(O)[C@@H]1C[C@@H](O)CN1C(=O)[C@@H]1CCCN1` [Pro-Hyp, prolyl-hydroxyproline] (H-Pro-[Hyp]-OH), in data set [2], the “cell proliferation of dermal fibroblasts” value is given as “enhance cell proliferation” and the “production of hyaluronic acid by dermal fibroblasts” value is “enhances”.
